{"source": "patent US20210353784A1", "about": "“DETECTING AND TREATING CANCERS USING CELL PENETRANT MTP53-OLIGOMERIZATION-DOMAIN PEPTIDE” (priority 2020, published 2021)", "key": {"[1]": {"tested_on": "p53, p73 and PARP1 protein levels in WHIM6 and WHIM25 tumors", "assay": "Western blot of p53, p73 and PARP1 protein levels in PDX tumors after Cy5p53Tet injection", "format": "in vivo, NSG mice", "experimental": "25 μg of proteins were run on 12% polyacrylamide gel and the Cy5p53Tet peptide accumulated in tumors was scanned at Cy5 channel and quantified. The intensity of Cy5p53Tet peptide was analyzed by ImageJ. p53 and MDM2 protein levels from the WHIM6 and WHIM25 tumors post-injection with Cy5p53Tet peptide at 1 hr, 2 hr and 3 hr were determined by Western blot analysis. 25 ug of proteins were load on 12% SDS-PAGE gel.\nFIG. 5C is a Western blot analysis showing p53, p63 and p73 protein levels from the WHIM6 and WHIM25 tumors 2 hr post injection with Cy5p53Tet peptide. 75 ug of proteins were load on 10% SDS-PAGE gel (left panel). p53, PARP1 and p73 protein levels from the WHIM6 and WHIM25 tumors 1 hr, 2 hr and 3 hr post injection with Cy5p53Tet peptide were determined by Western blot analysis (right panel). 50 ug of proteins were load on 10% SDS-PAGE gel.\nPDX models have been used in translational cancer research to validate the mechanisms that link specific biomarkers to treatment efficacy that could make clinical decisions. The coexpression of mtp53 and PARP1 proteins can be biomarkers for companion diagnostics using PDX models with mtp53. […] Uptake of the Cy5p53Tet peptide in WHIM6 and WHIM25 tumors was assessed on an in vivo epifluorecent imaging system (IVIS). The Cy5p53Tet peptide was detected in both TNBC PDX tumors; however, there was a higher Cy5 fluorescence signal in the tumor site of WHIM6 compared to tumor site of WHIM25 (FIG. 5A, represent picture of 2 hr post injection). […] Samples were run on 12% polyacrylamide gel and the Cy5p53Tet peptide accumulated in tumors was scanned at Cy5 channel and quantified. […]\nGiven the high degree of structural similarity of the tetramerization domain shared by the p53 family members, p63, and p73, the Cy5p53Tet peptide is believed to bind to TD of p63 or p73 and cause the Cy5p53Tet peptide accumulation in WHIM6 tumors. […] A higher level of p63 was detected in WHIM6 than in WHIM25 tumors (FIG. 5C left panel, compare lane 1 to 2). p73 protein levels were very low in both WHIM6 and WHIM25 tumors. […]"}, "[2]": {"tested_on": "MCF7 and MDA-MB-468 xenografts", "assay": "NIRF imaging of Cy5p53Tet in mice bearing bilateral MCF7/MDA-MB-468 xenografts (in vivo and ex vivo epifluorescence)", "conditions": "in vivo, after intravenous administration, 10 nmol", "procedure": "At 40, 80, and 180 min after injection, mice were sacrificed, and the xenografts were resected and imaged ex vivo (FIG. 2C).\nNIRF Imaging of Cy5p53Tet in Mice Bearing Bilateral MCF7/MDA-MB-468 Xenografts. Female athymic nude mice (6-10 weeks old, 01B74-Athymic NCr-nu/nu;) were obtained from Charles River Laboratories. Animals were supplemented with 17β-estradiol with a dose of 0.72 mg/pellet (60-day release) into the neck 7 days before MCF7 cells were subcutaneous implanted. 5×10^6 cells/mouse MCF7 cells were suspended in 100 μL of 1:1 media/matrigel basement membrane matrix (Corning) and injected subcutaneously on the left flank of each mouse (n≥3/group). After 4 weeks, 5×10^6 cells/mouse MDA-MB-468 cells were subcutaneously implanted in the right flank of the mouse in 100 μL of 1:1 media/matrigel basement membrane matrix. Imaging experiments were performed when the tumors reached a volume of ˜50-250 mm^3 (after approximately 3 weeks). Cy5p53Tet (10 nmol) was injected into the tail vein of each mouse. Prior to in vivo imaging, the mice were anesthetized with 1.5-2.0% isoflurane (Baxter Healthcare). Images were collected using an IVIS Spectrum (Perkin Elmer) 12 min, 30 min, and 3 h following the administration of Cy5p53Tet. […] Fluorescence imaging was carried out with excitation and emission wavelengths of 640 and 680 nm, respectively. […]"}, "[3]": {"tested_on": "MDA-MB-468 cells compared to MCF7 cells", "assay": "Cy5p53Tet cellular uptake by live cell imaging (confocal, Nikon Element quantification)", "format": "cell-based, Human", "conditions": "500 nM, 2 h incubation; Nikon Element analysis", "experimental": "Hoechst staining (blue) was used to stain the nuclei. Two independent experiments with biological replicates were performed.\nFIG. 1D is a graph showing quantification of Cy5p53Tet uptake in MCF7 and MDA-MB-468 cells via Nikon Element analysis. At least 200 cells per sample were measured by fluorescence microscopy.\nIn vitro uptake, specificity, and toxicity assays were performed to gauge the potential of mtp53ODPs as imaging agents. Live cell imaging was performed to compare the ability of Cy5p53Tet to stain ER+MCF7 breast cancer cells that express wtp53 and MDA-MB-468 TNBC cells which express stable missense mtp53 R273H. Cy5p53Tet was anticipated to detect both wtp53 and mtp53, but because of the higher stability of mtp53, MDA-MB-468 cells were predicted to have a higher signal. The intensity of the Cy5p53Tet signal was clearly higher in the MDA-MB-468 cells compared to the MCF7 cells (FIG. 1B), a difference that correlated to the level of p53 expression as determined by Western blot (FIG. 1C). […] However, after a 2 h incubation with Cy5p53Tet, the colocalization was clearly evident with the Hoechst-stained DNA (Supplemental Illustration S3 in U.S. Provisional application 63/186,409).\nCy5p53Tet Cellular Uptake by Live Cell Imaging. Cells were seeded at 2×10^5 per well in a 12-well glass bottom plate 1 day before imaging (MatTek). […]"}, "WHIM6 and WHIM25 tumors": {"tested_on": "WHIM6 and WHIM25 tumors", "assay": "Epifluorescence imaging (IVIS) of Cy5p53Tet uptake in bilateral PDX WHIM6/WHIM25 tumors", "format": "in vivo, NSG mice", "conditions": "10 nmol tail vein", "procedure": "In vivo optical imaging of Cy5p53Tet peptide uptake in bilateral PDX WHIM6/WHIM25 xenograft models. 2 million WHIM6 cells and WHIM25 cells were injected subcutaneously on the left and right shoulders of each mouse. 10 nmol Cy5p53Tet peptide was intravenously injected to each mouse when tumor size reached to 100-200 mm^3. At 1 hr, 2 hr and 3 hr post Cy5p53Tet peptide injection, the tumors were removed and the epifluorescence images were taken using an IVIS Spectrum. […] Cy5p53Tet peptide epifluorescence intensity quantification in WHIM6 and WHIM25 tumors was analyzed.\nFirst, WHIM6/WHIM25 bilateral PDX tumor-bearing NSG mice were tail vein injected with 10 nmol of Cy5p53Tet peptide to study its delivery efficacy (FIG. 5A). Then, the WHIM6 and WHIM25 tumors were removed at 1, 2, and 3 hr post-injection. Uptake of the Cy5p53Tet peptide in WHIM6 and WHIM25 tumors was assessed on an in vivo epifluorecent imaging system (IVIS). […] The Cy5p53Tet peptide signal was investigated in PDX tumor tissue by extracting proteins from the WHIM6 and WHIM25 tumors post-injection with the Cy5p53Tet peptide at 1 hr, 2 hr, and 3 hr, and the Cy5p53Tet peptide effects were characterized in PDX models (FIG. 5B). Samples were run on 12% polyacrylamide gel and the Cy5p53Tet peptide accumulated in tumors was scanned at Cy5 channel and quantified. […]"}}, "data": [{"substance": "H-CysCy5-RKKRRQRRGEYFTLQIRGRERFEMFRELNEALELK-OH (N-terminal Cy5; Synthetic peptide based on p53 protein) [Cy5p53Tet]", "values": [{"measurement": "mtp53 and wtp53 protein levels upon treatment", "setting": "[1]; WHIM25 and WHIM6 tumors", "result": "not affected"}, {"measurement": "PARP1 protein levels in response to the peptide", "setting": "[1]; mtp53 WHIM25 tumor samples", "result": "deceased"}, {"measurement": "p73 protein levels in response to the peptide", "setting": "[1]; mtp53 WHIM25 tumor samples", "result": "increased"}, {"measurement": "NIRF signal in MCF7 tumors", "setting": "[2]", "result": "no signal"}, {"measurement": "NIRF signal in MDA-MB-468 tumors", "setting": "[2]", "result": "clearly observed"}, {"measurement": "uptake of the mtp53ODP in MDA-MB-468 cells compared to MCF7 cells", "setting": "[3]", "result": "twofold higher"}, {"measurement": "Cy5 fluorescence signal in the tumor site of WHIM6 compared to WHIM25", "setting": "WHIM6 and WHIM25 tumors", "result": "higher"}]}]}
